# Literature values, collected in patent US12409121B2, “Formulations and methods for preparing stable cosmetic compositions” (Spinart, LLC, priority 2019, dated 2025).
smiles,measurement,setting,value
N=C(N)NCCCC(N)C(=O)O (centres unmarked) [Arginine],α-CO2H pKa1,carboxylic group,2.18
same,α-NH3 pKa2,α-amino group,9.09
